Data reported in patent publication US20160031958A1, “METHODS AND COMPOSITIONS USEFUL IN MANIPULATING THE STABILITY OF RE1 SILENCING TRANSCRIPTION FACTOR” (OREGON HEALTH & SCIENCE UNIVERSITY, priority 2014, published 2016).
Where a SMILES comes first, the peptide text is derived from it. The star is where a group is joined. Cbz = O=C(OCc1ccccc1)*

Key:
Pin1 [1] = target: T1, Pin1 (Homo sapiens, UniProt Q13526); assay: Co-immunoprecipitation of GST-βTrCP with FLAG-REST in HEK293T cells after Pin1 inhibition; format: cell-based; conditions: FLAG-REST and GST-βTrCP 48 h, PiB 7.5 h and MG132 4 h
T1 construct: endogenous in cells; host or cells: HEK293T
T1 sequence (Q13526 whole entry): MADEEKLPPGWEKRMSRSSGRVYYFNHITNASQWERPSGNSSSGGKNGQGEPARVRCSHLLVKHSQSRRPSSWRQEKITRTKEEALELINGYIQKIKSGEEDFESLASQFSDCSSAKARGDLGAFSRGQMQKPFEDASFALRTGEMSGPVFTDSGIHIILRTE
Protocol: HEK293T cells were transfected with FLAG-REST (unmutated or S861A/S864A) and GST-βTrCP for 48 h prior to treatment with PiB for 7.5 h and MG132 for 4 h, and then immunoprecipitated. Western blots were probed with anti-FLAG or anti-GST.
(§1) HEK293T cells were transfected using Lipofectamine 2000 (Life Technologies) following the manufacturer's instructions. PC12 tet, PC12 tet-on FLAG-REST, and HEK293T cell lines were maintained as described in Ballas N et al 2001 supra. Neurospheres were isolated from E12.5 mouse cortices and cultured as described in Reynolds B A and Weiss S, Science 255, 1707-1710 (1992); incorporated by reference herein in neurobasal media supplemented with 2 mM L-glutamine, 100 U/mL penicillin, […] streptomycin, B27 supplement, 20 ng/mL EGF, and 10 ng/mL FGF-2, all from Life Technologies. Neurospheres were passaged every 3-4 days using Accutase® (Sigma). […]
(§2) Whole cell lysates were prepared and immunoprecipitated following the procedures in Ballas N et al, 2001 supra and Nesti E et al, Mol Biol Cell 15, 4073-4088 (2004); incorporated by reference herein. Western blots were performed by standard procedures using antibodies described below and analyzed using anti IgG conjugated to infrared dyes (ThermoFisher) on an Odyssey® infrared fluorescence imager (LiCor). […] Infrared fluorescence was detected on the Odyssey® imager (LiCor) in the 700 nm channel. […]

Pin1 [2] = target: T2, Pin1 (Rattus norvegicus, UniProt A0ABK0LFD7); assay: Western blot of FLAG-REST protein levels in PC12 tet-on FLAG-REST cells treated with Pin1 inhibitor; format: cell-based; conditions: PC12 tet-on FLAG-REST cells induced 24 h with doxycycline, PiB or vehicle for 7.5 h
T2 construct: endogenous in cells; host or cells: PC12 tet-on FLAG-REST cells
T2 sequence (A0ABK0LFD7 1-162): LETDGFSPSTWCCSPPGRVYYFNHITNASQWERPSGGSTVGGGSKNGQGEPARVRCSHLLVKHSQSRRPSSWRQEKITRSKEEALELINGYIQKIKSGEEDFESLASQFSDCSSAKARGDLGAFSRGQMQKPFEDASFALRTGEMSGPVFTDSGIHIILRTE
Protocol: PC12 tet-on FLAG-REST cells were induced 24 h with doxycycline, treated with PiB or vehicle for 7.5 h, and then extracted for analysis. Blots were probed with anti-FLAG (REST) and α-tubulin (loading control).
as §1, §2

endogenous REST protein [3] = assay: Western blot of endogenous REST protein after transfection of CTDSP1 cDNA into HEK293T cells; format: cell-based, Human; conditions: HEK293T cells transfected with CTDSP1 cDNA
Protocol: FIG. 6D is an image of a Western blot analysis showing stabilized endogenous REST protein after transfection of CTDSP1 cDNA into HEK293T cells. α-tubulin is the loading control.
Using a REST phospho-specific polyclonal antibody, it was shown that exogenously expressed FLAG-CTDSP1 dephosphorylated these sites in full-length REST (FIG. 6B). Dephosphorylation by CTDSP1 was also observed in the REST reporter peptides as detected by in-gel fluorescence (FIG. 6C).
as §2, with “(LiCor). For detecting phosphorylated REST at S861/S864, cell extracts were prepared lacking phosphatase inhibitors. For phosphatase treatment, 75 μg of total protein was treated with 600 U lambda phosphatase (New England Biolabs) or with buffer alone at 30° C. for 1 h, according to the manufacturer's protocol.” for “(LiCor).”

endogenous REST protein [4] = assay: Western blot of endogenous REST protein levels in transfected E12.5 neurospheres; format: cell-based; conditions: E12.5 mouse cortical neurospheres after transfection; MG132 4 h; compared to control peptides
Protocol: FIG. 7B is an image of a Western blot showing endogenous REST protein levels in E12.5 neurospheres after transfection. Lane 1, empty vector; lane 2, control (595-694) peptide; lane 3, REST(810-910) S861/864A peptide; lane 4, REST(810-910) WT peptide; lane 5, empty vector with MG132 treated for 4 h. The blot was probed with anti-mouse-REST antibody and anti-tubulin (loading control) antibodies.
There is a significant difference between REST (810-910) compared to control (595-694) peptide (n=5, p=0.0021) and REST(810-910) compared to S861/864A REST(810-910) (n=5, p=0.046). The difference between MG132 and REST(810-910) is not significant (n=5, p=0.7996, Sidak's multiple comparison test, error bars represent 95% confidence interval).
The Examples above used the REST (810-910) reporter as a surrogate substrate for signaling molecules that target S861/S864 on full-length REST. […]
as §2

MEK [5] = assay: Native gel / in-gel GFP fluorescence of REST (810-910)-GFP reporter peptide phosphorylation in HEK293T cells; format: cell-based, Human
Protocol: To interrogate this serine residue, HEK293T cells were transfected with the REST (810-910)-GFP peptide with alanine mutations at S856, S861, and/or S864 as indicated. (S856/864A is S856A/S864A with S861 unmutated; S856/861A is S856A/S861A with S864 unmutated; S861/864A is S861A/S864A with S856 unmutated). […]
Gels were treated the same as in FIG. 5C.
To monitor phosphorylation status of specific REST sites under different circumstances, a cDNA reporter construct that expresses a peptide encoding amino acids 810-to-910 of REST (FIG. 3A) was constructed. Mutant REST (810-910) cDNAs encoding alanine mutations at S861, S864 and at an adjacent site, S856 were also constructed. S856 was minimally phosphorylated in the mass spectrometric analysis described above. […] The constructs also comprise regions that encode N-terminal FLAG and C-terminal eGFP tags (FIG. 3A). These constructs were transfected into HEK cells and expressed. Extracts from the cells were resolved on native gels 24 hours after transfection. The expressed peptides were detected by in-gel GFP fluorescence.
The phosphorylation state of the expressed REST peptides can be visualized by differential migration in native gels due to charge differences. The unmutated S861/S864 REST 810-910 peptide (FIG. 3B, lane 1) migrated predominantly as two distinct bands that were not present upon treatment with lambda phosphatase (FIG. 3B, lane 7). […] The identification of the doubly phosphorylated species was based upon the mobility of an unmutated peptide containing unmutated S861/864 (FIG. 3B, lane 2, S856A), which was not present in samples expressing peptides containing S861A or S864A single mutations (lanes 3 and 4, respectively).
Detection of in gel fluorescence on native 10.5%-14% acrylamide gels (Bio-Rad Cat #345-9949) was performed using the Typhoon imaging system by GE Healthcare Life Science.

MEK [6] = assay: Western blot of FLAG-REST protein levels in transfected HEK cells after MEK/ERK inhibitor; format: cell-based, Human; conditions: HEK cells transfected with FLAG-REST cDNA, PD184352 or vehicle for 30 min
Protocol: To provide further support for this, unmutated REST (810-910) reporter cDNA was transfected into HEK cells and the peptide expressed in the presence and absence of the MEK/ERK inhibitor PD184352. Treatment with PD184352 caused a modest loss from the band at the position representing unmutated S861/S864 peptide and a reciprocal modest increase in the species representing unphosphorylated peptide (FIG. 5C). […] Accordingly, HEK cells transfected with FLAG-REST cDNA were treated with PD184352 for 30 min and the extracts were analyzed by Western blot.
as §2, with “(LiCor). For detecting phosphorylated REST at S861/S864, cell extracts were prepared lacking phosphatase inhibitors. For phosphatase treatment, 75 μg of total protein was treated with 600 U lambda phosphatase (New England Biolabs) or with buffer alone at 30° C. for 1 h, according to the manufacturer's protocol.” for “(LiCor).”

CCOC(=O)CN1C(=O)c2ccc3c4c(ccc(c24)C1=O)C(=O)N(CC(=O)OCC)C3=O [PiB]
βTrCP binding to REST (co-immunoprecipitation) (Pin1 [1]): diminished βTrCP binding to REST
REST protein levels (anti-FLAG Western blot) (Pin1 [2]): higher REST protein levels

CC(C)C[C@@H](C=O)NC(=O)[C@H](CC(C)C)NC(=O)[C@H](CC(C)C)NC(=O)OCc1ccccc1 [MG132] (Cbz-Leu-Leu-Leu-aldehyde)
REST stabilization by CTDSP1, further effect of MG132 (endogenous REST protein [3]): not increased further
Endogenous full-length REST protein levels (endogenous REST protein [4]): did not stabilize the Rest protein further

EGF: recombinant EGF, upstream activator of ERK
Phosphorylation of S864 in REST (810-910)-GFP peptide (mobility shift) (MEK [5]; HEK293T, recombinant EGF or vehicle 10 min): induces phosphorylation of S864

O=C(NOCC1CC1)c1ccc(F)c(F)c1Nc1ccc(I)cc1Cl [PD184352]
EGF-induced phosphorylation of S864 in REST (810-910)-GFP peptide (MEK [5]; HEK293T, PD184352 for 20 min, then recombinant EGF 10 min): inhibited
Bands of doubly phosphorylated and non-phosphorylated REST (810-910) peptide (MEK [5]; REST (810-910) and GFP cDNA co-transfected into HEK cells, presence and absence of PD184352 (FIG. 10)): loss of band representing the doubly phosphorylated peptide
S861/S864 phosphorylation in WT REST peptide (MEK [5]; transfected HEK293T cells, 10 mM PD184352 for 4 hours): partial loss of S861/S864 phosphorylation
FLAG-REST protein levels (Western blot) (MEK [6]): increased FLAG-REST protein levels
